Assay results as given in PubChem BioAssay AID256 (DTP/NCI, 2004).
Where “and” joins values, the source holds several entries; their conditions need not be identical. Equal values may be shown once. Toxic doses and inconclusive results are not listed.

Tested on: CD2F1 mice, L1210 leukemia ip, survival T/C
Assay: NCI In Vivo Anticancer Drug Screen. Data for tumor model L1210 Leukemia (intraperitoneal) in CD2F1 (CDF1) mice
Settings: higher = longer survival
Procedure: The antitumor activity of compounds was measured in mice bearing transplantable tumors. Survival or tumor size were measured and the results are expressed as the measurement made in the treated group (T) divided by the measurement made in the vehicle treated control group (C). The tumor model used in this assay is L1210 Leukemia (intraperitoneal) in CD2F1 (CDF1) mice

[1] = endpoint: mean survival time, dose: 50.0 mg/kg/injection, schedule: Q01DX009 (ip), vehicle: saline with Tween-80
[2] = endpoint: mean survival time, dose: 100.0 mg/kg/injection, schedule: Q01DX009 (ip), vehicle: saline with Tween-80
[3] = endpoint: mean survival time, dose: 100.0 mg/kg/injection, schedule: Q04DX003 (ip), vehicle: saline with Tween-80
[4] = endpoint: mean survival time, dose: 200.0 mg/kg/injection, schedule: Q01DX009 (ip), vehicle: saline with Tween-80
[5] = endpoint: mean survival time, dose: 100.0 mg/kg/injection, schedule: Q04DX002 (ip), vehicle: saline with Tween-80

## O=C(O)CC1(CC(=O)O)CCCCC1
[1]
  T/C: 98 % of control
[2]
  T/C: 94 % of control
[3]
  T/C: 91 % of control
[4]
  T/C: 100 % of control
endpoint: mean survival time, dose: 200.0 mg/kg/injection, schedule: Q04DX003 (ip), vehicle: saline with Tween-80
  T/C: 93 % of control

## CC(=O)OC(C)C(OC(C)=O)C(OC(C)=O)C(C=O)OC(C)=O (stereo not drawn)
endpoint: mean survival time, dose: 100.0 mg/kg/injection, schedule: Q01DX001 (ip), vehicle: Klucel (hydroxypropylcellulose) (HPC)
  T/C: 101 % of control
endpoint: mean survival time, dose: 200.0 mg/kg/injection, schedule: Q01DX001 (ip), vehicle: Klucel (hydroxypropylcellulose) (HPC)
  T/C: 101 % of control
endpoint: mean survival time, dose: 400.0 mg/kg/injection, schedule: Q01DX001 (ip), vehicle: Klucel (hydroxypropylcellulose) (HPC)
  T/C: 101 % of control

## CC(=O)OC1CSC1
endpoint: mean survival time, dose: 30.0 mg/kg/injection, schedule: Q01DX001 (ip), vehicle: saline with Tween-80
  T/C: 106 % of control
endpoint: mean survival time, dose: 60.0 mg/kg/injection, schedule: Q01DX001 (ip), vehicle: saline with Tween-80
  T/C: 109 % of control
endpoint: mean survival time, dose: 120.0 mg/kg/injection, schedule: Q01DX001 (ip), vehicle: saline with Tween-80
  T/C: 101 % of control

## Cc1ccc(NC(=O)/C=C/C(=O)O)cc1C
[1]
  T/C: 95 % of control
[2]
  T/C: 101 % of control
[4]
  T/C: 105 % of control

## CCOC(=O)C1=C(C#N)C2(CCC(OCc3ccccc3)CC2)C(=O)O1 (stereo not drawn)
endpoint: mean survival time, dose: 12.5 mg/kg/injection, schedule: Q01DX009 (ip), vehicle: saline
  T/C: 95 % of control
endpoint: mean survival time, dose: 12.5 mg/kg/injection, schedule: Q01DX009 (ip), vehicle: suspension in saline
  T/C: 106 % of control
endpoint: mean survival time, dose: 25.0 mg/kg/injection, schedule: Q01DX009 (ip), vehicle: saline
  T/C: 100 % of control
endpoint: mean survival time, dose: 25.0 mg/kg/injection, schedule: Q01DX009 (ip), vehicle: suspension in saline
  T/C: 106 % of control
endpoint: mean survival time, dose: 50.0 mg/kg/injection, schedule: Q01DX009 (ip), vehicle: saline
  T/C: 107 % of control
endpoint: mean survival time, dose: 50.0 mg/kg/injection, schedule: Q01DX009 (ip), vehicle: suspension in saline
  T/C: 108 % of control
endpoint: mean survival time, dose: 100.0 mg/kg/injection, schedule: Q01DX009 (ip), vehicle: saline
  T/C: 106 % of control
endpoint: mean survival time, dose: 100.0 mg/kg/injection, schedule: Q01DX009 (ip), vehicle: suspension in saline
  T/C: 106 % of control
endpoint: mean survival time, dose: 200.0 mg/kg/injection, schedule: Q01DX009 (ip), vehicle: saline
  T/C: 106 % of control
endpoint: mean survival time, dose: 200.0 mg/kg/injection, schedule: Q01DX009 (ip), vehicle: suspension in saline
  T/C: 100 % of control
endpoint: mean survival time, dose: 400.0 mg/kg/injection, schedule: Q01DX009 (ip), vehicle: suspension in saline
  T/C: 108 % of control

## NCC(=O)NCC(=O)OCCO
endpoint: mean survival time, dose: 50.0 mg/kg/injection, schedule: Q01DX009 (ip), vehicle: water
  T/C: 97 % of control
endpoint: mean survival time, dose: 100.0 mg/kg/injection, schedule: Q01DX009 (ip), vehicle: water
  T/C: 93 % of control
endpoint: mean survival time, dose: 200.0 mg/kg/injection, schedule: Q01DX009 (ip), vehicle: water
  T/C: 91 % of control
endpoint: mean survival time, dose: 400.0 mg/kg/injection, schedule: Q01DX009 (ip), vehicle: water
  T/C: 90 % of control

## NC(N)=N/N=C/c1c(O)ccc2ccccc12
endpoint: mean survival time, dose: 31.25 mg/kg/injection, schedule: Q01DX010 (oral), vehicle: saline
  T/C: 102 % of control
endpoint: mean survival time, dose: 62.5 mg/kg/injection, schedule: Q01DX010 (oral), vehicle: saline
  T/C: 108 % of control
endpoint: mean survival time, dose: 125.0 mg/kg/injection, schedule: Q01DX010 (oral), vehicle: saline
  T/C: 101 % of control

## NC(=S)c1ncn(C2OC(COC=O)C(OC=O)C2OC=O)c1NC=O (stereo not drawn)
endpoint: mean survival time, dose: 50.0 mg/kg/injection, schedule: Q04DX002 (ip), vehicle: Klucel (hydroxypropylcellulose) (HPC)
  T/C: 121 % of control
endpoint: mean survival time, dose: 100.0 mg/kg/injection, schedule: Q01DX009 (ip), vehicle: Klucel (hydroxypropylcellulose) (HPC)
  T/C: 151 % of control
[5]
  T/C: 166 % of control
endpoint: mean survival time, dose: 200.0 mg/kg/injection, schedule: Q01DX009 (ip), vehicle: Klucel (hydroxypropylcellulose) (HPC)
  T/C: 117 % of control
endpoint: mean survival time, dose: 200.0 mg/kg/injection, schedule: Q04DX002 (ip), vehicle: saline with Tween-80
  T/C: 158 % of control
endpoint: mean survival time, dose: 400.0 mg/kg/injection, schedule: Q04DX002 (ip), vehicle: Klucel (hydroxypropylcellulose) (HPC)
  T/C: 159 % of control
endpoint: mean survival time, dose: 400.0 mg/kg/injection, schedule: Q04DX002 (ip), vehicle: saline with Tween-80
  T/C: 154 % of control
endpoint: median survival time, dose: 12.5 mg/kg/injection, schedule: Q01DX009 (ip), vehicle: Klucel (hydroxypropylcellulose) (HPC)
  T/C: 111 % of control
endpoint: median survival time, dose: 25.0 mg/kg/injection, schedule: Q01DX009 (ip), vehicle: Klucel (hydroxypropylcellulose) (HPC)
  T/C: 122 % of control
endpoint: median survival time, dose: 200.0 mg/kg/injection, schedule: Q01DX009 (ip), vehicle: Klucel (hydroxypropylcellulose) (HPC)
  T/C: 154 % of control and 166 % of control

## O=c1cn[nH]c2c(F)cccc12
endpoint: mean survival time, dose: 100.0 mg/kg/injection, schedule: Q01DX001 (ip), vehicle: other
  T/C: 97 % of control
endpoint: mean survival time, dose: 200.0 mg/kg/injection, schedule: Q01DX001 (ip), vehicle: other
  T/C: 104 % of control
endpoint: mean survival time, dose: 400.0 mg/kg/injection, schedule: Q01DX001 (ip), vehicle: other
  T/C: 98 % of control

## CNC(=S)Nc1ccc(OC)c2ccccc12
endpoint: mean survival time, dose: 100.0 mg/kg/injection, schedule: Q04DX003 (ip), vehicle: Klucel (hydroxypropylcellulose) (HPC)
  T/C: 86 % of control
endpoint: mean survival time, dose: 200.0 mg/kg/injection, schedule: Q04DX003 (ip), vehicle: Klucel (hydroxypropylcellulose) (HPC)
  T/C: 88 % of control
endpoint: mean survival time, dose: 400.0 mg/kg/injection, schedule: Q04DX003 (ip), vehicle: Klucel (hydroxypropylcellulose) (HPC)
  T/C: 89 % of control

## COc1cc(OC)c(NC(=O)Oc2cc(C)c(Cl)c(C)c2Cl)cc1Cl
[1]
  T/C: 94 % of control
[2]
  T/C: 94 % of control
[4]
  T/C: 97 % of control

## O=C(O)c1ccc(C(=O)O)nc1
endpoint: mean survival time, dose: 100.0 mg/kg/injection, schedule: Q01DX001 (ip), vehicle: saline
  T/C: 87 % of control
endpoint: mean survival time, dose: 200.0 mg/kg/injection, schedule: Q01DX001 (ip), vehicle: saline
  T/C: 95 % of control
endpoint: mean survival time, dose: 400.0 mg/kg/injection, schedule: Q01DX001 (ip), vehicle: saline
  T/C: 97 % of control

## CCCCCCCC/C=C/CCCCCC1CCCC(C)N1 (stereo not drawn)
endpoint: mean survival time, dose: 50.0 mg/kg/injection, schedule: Q04DX002 (ip), vehicle: saline with Tween-80
  T/C: 98 % of control and 102 % of control
[5]
  T/C: 94 % of control

## O=c1c2nccnc2nc2n1CCCCC2
endpoint: mean survival time, dose: 75.0 mg/kg/injection, schedule: Q01DX001 (ip), vehicle: saline
  T/C: 100 % of control
endpoint: mean survival time, dose: 150.0 mg/kg/injection, schedule: Q01DX001 (ip), vehicle: saline
  T/C: 103 % of control
endpoint: mean survival time, dose: 300.0 mg/kg/injection, schedule: Q01DX001 (ip), vehicle: saline
  T/C: 103 % of control

## CCCCCCCCCCCC1=NC(CO)(CO)CO1
[2]
  T/C: 96 % of control
[4]
  T/C: 90 % of control
endpoint: mean survival time, dose: 400.0 mg/kg/injection, schedule: Q01DX009 (ip), vehicle: saline with Tween-80
  T/C: 93 % of control

## COc1cc(OC)c(OC)cc1/C=C\c1ccc2ccccc2[n+]1C
endpoint: mean survival time, dose: 12.5 mg/kg/injection, schedule: Q01DX009 (ip), vehicle: saline with Tween-80
  T/C: 100 % of control
endpoint: mean survival time, dose: 25.0 mg/kg/injection, schedule: Q01DX009 (ip), vehicle: saline with Tween-80
  T/C: 91 % of control
[3]
  T/C: 104 % of control

## O=C(CCCCCC(=O)OCCBr)OCCBr
endpoint: mean survival time, dose: 50.0 mg/kg/injection, schedule: Q04DX003 (ip), vehicle: saline sonified
  T/C: 102 % of control
endpoint: mean survival time, dose: 100.0 mg/kg/injection, schedule: Q04DX003 (ip), vehicle: saline sonified
  T/C: 100 % of control
endpoint: mean survival time, dose: 200.0 mg/kg/injection, schedule: Q04DX003 (ip), vehicle: saline sonified
  T/C: 93 % of control
